EP0232650B1, “Analogues of hypocalcemic polypeptide compounds preserving the calcium content of the body, their manufacture, their use as medicaments and the compositions thereof” (MILHAUD, Gérard, priority 1985, dated 1989)
Where a SMILES comes first, the peptide text is derived from it. Bridges are numbered along the chain shown (N, C = ends).

Assay: Hypocalcemic activity in the fasted male rat (fall in calcemia one hour after intravenous injection, compared with Research Standard B)
Type: in vivo
Details: male rat 100-120 g, fasted 16 hours, peptide diluted in sodium acetate buffer 0,1 N pH 6 with 0,1 % albumin, versus "Research Standard B"
Source text: Elle est déterminée chez le rat mâle pesant de 100 à 120 g et soumis à un jeûne de 16 heures. L'activité est exprimée en unité MRC à partir de la baisse de la calcémie, mesurée une heure après l'injection intraveineuse de peptide à tester convenablement dilué en tampon acétate de sodium 0,1 N pH 6 et 0,1 % d'albumine, par comparaison avec l'activité du "Research Standard B" convenablement dilué. L'activité biologique du peptide de l'exemple 1 est supérieure à 4000 unités MRC par mg et celle du peptide de l'exemple 2 est supérieure à 4500 unités MRC par mg.

CC(C)C[C@H](NC(=O)[C@H](CCCCN)NC(=O)CNC(=O)[C@H](CC(C)C)NC(=O)[C@@H](NC(=O)[C@@H]1CSSC[C@H](N)C(=O)N[C@@H](CC(N)=O)C(=O)N[C@@H](CO)C(=O)N[C@@H](CC(C)C)C(=O)N[C@@H](CO)C(=O)N[C@@H]([C@@H](C)O)C(=O)N1)C(C)C)C(=O)N[C@@H](CO)C(=O)N[C@@H](CCC(N)=O)C(=O)N[C@@H](CCC(=O)O)C(=O)N[C@@H](CC(C)C)C(=O)N[C@@H](Cc1c[nH]cn1)C(=O)N[C@@H](CCCCN)C(=O)N[C@@H](CC(C)C)C(=O)N[C@@H](CCC(N)=O)C(=O)N[C@H](C(=O)N[C@@H](Cc1ccc(O)cc1)C(=O)N1CCC[C@H]1C(=O)N[C@@H](CCCNC(=N)N)C(=O)N[C@H](C(=O)N[C@@H](CC(=O)O)C(=O)N[C@H](C(=O)NCC(=O)N[C@@H](C)C(=O)NCC(=O)N[C@H](C(=O)N1CCC[C@H]1C(N)=O)[C@@H](C)O)C(C)C)[C@@H](C)O)[C@@H](C)O [exemple 1, Cys - Asn - Ser - Leu - Sers - Thr - Cys - Val - Leu - Glyio - Lys - Leu - Ser - Gin - Glu1s - Leu - His - Lys - Leu - Gln20- Thr - Tyr - Pro - Arg - Thr25- Asp - Val - Gly - Ala - Gly30 - Thr - Proamide] (H-CNSLSTCVLGKLSQELHKLQTYPRTDVGAGTP-NH2; disulfide 1-7)
activité biologique: > 4000 unités MRC par mg
